{"source": "patent US20050209190A1", "about": "“Camptothecin complexes” (priority 2000, published 2005)", "origin": "cited, not measured here", "key": {"[1]": {"test_system": "human colon cancer xenografts", "settings": "mouse, in vivo"}, "[2]": {"settings": "administered intravenously; studies abandoned"}, "[3]": {"test_system": "nontumorigenic human cells", "settings": "in vitro"}, "tumorigenic human cells": {"test_system": "tumorigenic human cells", "settings": "in vitro"}}, "data": [{"smiles": "CC[C@@]1(O)C(=O)OCc2c1cc1n(c2=O)Cc2cc3c(N)cccc3nc2-1", "note": "[Example 9AC, 9-Amino-20(S)-Camptothecin]", "values": [{"measurement": "anticancer activity against human colon cancer xenografts", "setting": "[1]", "result": "high anticancer activity"}]}, {"smiles": "CC[C@@]1(O)C(=O)OCc2c1cc1n(c2=O)Cc2cc3c([N+](=O)[O-])cccc3nc2-1", "note": "[Example 9NC, 9-nitrocamptothecin]", "values": [{"measurement": "growth of human tumor xenografts", "setting": "human tumor xenografts; immunodeficient nude mice", "result": "inhibited the growth"}, {"measurement": "activity against human tumor xenograft models", "setting": "human tumor xenografts; mouse, in vivo", "result": "high activity"}, {"measurement": "regression of human tumors established as xenografts", "setting": "human tumor xenografts; nude mice", "result": "induced regression"}]}, {"smiles": "CC[C@@]1(O)C(=O)OCc2c1cc1n(c2=O)Cc2cc3cc4c(cc3nc2-1)OCO4", "note": "[10,11 MD, 10,11-Methylendioxy-20(S)-Camptothecin]", "values": [{"measurement": "anticancer activity against human colon cancer xenografts", "setting": "[1]", "result": "high anticancer activity"}]}, {"smiles": "CC[C@@](O)(C(=O)[O-])c1cc2n(c(=O)c1CO)Cc1cc3ccccc3nc1-2.[Na+]", "note": "[CPT Na+]", "values": [{"measurement": "potency in clinical trials", "setting": "[2]", "result": "low potency"}, {"measurement": "toxicity in clinical trials", "setting": "[2]", "result": "high toxicity"}]}, {"smiles": "CC[C@@]1(O)C(=O)OCc2c1cc1n(c2=O)Cc2cc3ccccc3nc2-1", "note": "[CPT, 20(S)-camptothecin]", "values": [{"measurement": "solubility in water", "result": "insoluble in water"}, {"measurement": "effect on nontumorigenic cells", "setting": "[3]", "result": "cytostatic"}, {"measurement": "effect on tumorigenic cells", "setting": "tumorigenic human cells", "result": "cytotoxic"}]}]}
